Source: publication PMC4687871, “Delphinidin Inhibits Tumor Growth by Acting on VEGF Signalling in Endothelial Cells” (PLoS ONE, 2015)
Where “and” joins values, the source holds several entries; their conditions need not be identical. Equal values may be shown once.

Columns and labels:
[1] = tested on: HUVECs; assay: Endothelial cell proliferation (CellTiter 96 AQueous One); assay type: cell-based, human; details: for change of VEGF-induced proliferation: delphinidin 10 μg/ml + VEGF 10 ng/ml; for change of rate of basal proliferation: delphinidin 10 μg/ml, 1% human serum
Procedure: HUVECs (12,000 cells per well) were seeded on 24-multiwell plates, or in the case of VEGFR2 studies HUVECs (10000 cells per well) were seeded on 96-multiwell plates, in high serum culture medium and allowed to attach for 4–5 h. The 20% serum medium was then replaced by 1% HS medium. After 24 h incubation, medium was removed and replaced with 500 μl /well or 280 μl/well (for VEGFR2 studies) of 1% HS medium containing tested substances. Cells were pre-treated with or without a MEK1/2 MAP kinase inhibitor (U-0126, 10 μM) or a PI3 kinase inhibitor (LY-294002, 10 μM), then treated with or without 10 ng/ml of VEGF, in presence or in absence of 10 μg/ml delphinidin. Cells were allowed to proliferate for 3 days and HUVEC proliferation was determined at 24 h, 48 h, and 72 h by a colorimetric assay using the ‘CellTiter 96 AQeous One Solution Cell Proliferation Assay’ from Promega.
Cells were pre-treated with or without a VEGFR2 specific inhibitor (Ki8751, 10 nM), then treated with or without 10 ng /ml in presence or absence of 10 μg/ml delphinidin. Cells were allowed to proliferate for 2 days and HUVECs proliferation was determined at 24 h and 48 h by a colorimetric assay using the ‘CellTiter 96 AQeous One Solution Cell proliferation Assay’ from Promega.

[2] = molecular target: T1, PDE2 (Homo sapiens, UniProt O00408); assay: Purified PDE radio-enzymatic assay, PDE2; assay type: biochemical; details: substrate 1 μM cAMP, preliminarily reported in ref 26
T1 construct: PDE2 was isolated from human platelets; from tissue; host or cells: human platelets
T1 sequence (O00408 whole entry): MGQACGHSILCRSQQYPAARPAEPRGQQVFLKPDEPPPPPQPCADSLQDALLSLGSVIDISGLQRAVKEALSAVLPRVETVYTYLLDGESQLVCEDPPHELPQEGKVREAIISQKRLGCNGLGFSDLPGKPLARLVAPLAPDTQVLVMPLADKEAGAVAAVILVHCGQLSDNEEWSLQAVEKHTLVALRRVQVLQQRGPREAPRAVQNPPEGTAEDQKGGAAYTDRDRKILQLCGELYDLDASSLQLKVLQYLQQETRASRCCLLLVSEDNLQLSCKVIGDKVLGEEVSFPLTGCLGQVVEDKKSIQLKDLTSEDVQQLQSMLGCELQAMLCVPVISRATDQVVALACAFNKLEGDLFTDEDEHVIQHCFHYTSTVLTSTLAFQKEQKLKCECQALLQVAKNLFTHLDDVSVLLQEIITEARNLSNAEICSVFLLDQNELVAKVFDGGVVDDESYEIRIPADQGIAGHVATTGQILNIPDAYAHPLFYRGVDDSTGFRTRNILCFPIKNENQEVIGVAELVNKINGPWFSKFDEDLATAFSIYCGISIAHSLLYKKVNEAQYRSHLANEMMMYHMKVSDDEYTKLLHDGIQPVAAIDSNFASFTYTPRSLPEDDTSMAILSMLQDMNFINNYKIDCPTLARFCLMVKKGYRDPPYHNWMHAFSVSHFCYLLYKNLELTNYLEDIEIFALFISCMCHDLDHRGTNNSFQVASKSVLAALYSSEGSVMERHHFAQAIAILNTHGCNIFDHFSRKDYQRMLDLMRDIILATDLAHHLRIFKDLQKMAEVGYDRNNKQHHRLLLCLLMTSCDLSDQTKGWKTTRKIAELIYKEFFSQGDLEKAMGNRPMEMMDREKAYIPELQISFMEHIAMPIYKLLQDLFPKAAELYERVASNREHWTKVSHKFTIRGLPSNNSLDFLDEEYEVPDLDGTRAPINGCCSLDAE
Procedure: (§1) PDE1, PDE3, PDE4 and PDE5 were isolated by anion-exchange chromatography from bovine aortic smooth muscle cytosolic fraction as previously described. PDE2 was isolated from human platelets. Purified PDEs were stored as aliquots at -80°C until use. PDE activity was determined by a radio-enzymatic assay as described previously. The concentration of delphinidin that produced 50% inhibition (IC50) of substrate hydrolysis (determined at 1μM cAMP or cGMP) was calculated by non-linear regression analysis (GraphPad Prism, San Diego, CA) of concentration-response curves performed with 1–300 μM of delphinidin and included 6 different concentrations of delphinidin.

[3] = tested on: ATF1; assay: ATF1 phosphorylation in HUVECs (Western blot); assay type: cell-based, human; details: delphinidin 10 μg/ml, 30 min
Procedure: (§2) HUVECs (9,000 cells per dish of 3.5 cm diameter) were seeded on petri dishes in high serum culture medium and allowed to attach for 4–5 h. The 20% serum medium was then replaced by 1% HS medium. […] Appropriate quantities of extracted proteins were resolved in a SDS-10% polyacrylamide gel and electro transferred onto PVDF membranes, as described previously. […] Immobilized antigens were detected by chemiluminescence using HRP-conjugates as secondary antibodies (1/60,000), an ECL assay kit and autoradiography films. Autoradiography signals were captured on a GeneGenius Bio Imaging System (Syngene) using the GeneSnap software and analyzed using the GeneTools software. […] Immobilized antigens were detected as described above.

[4] = molecular target: T2, PDE5 (Bos taurus, UniProt Q28156); assay: Purified PDE radio-enzymatic assay, PDE5; assay type: biochemical, bovine; details: substrate 1 μM cGMP; preliminarily reported in ref 26
T2 construct: isolated by anion-exchange chromatography from bovine aortic smooth muscle cytosolic fraction; from tissue; host or cells: bovine aortic smooth muscle, cytosolic fraction
Procedure: as §1

[5] = tested on: VEGFR2; assay: VEGFR2 expression and phosphorylation in B16-F10 cells (Western blot); assay type: cell-based, mouse
Procedure: (§3) HUVECs and B16-F10 cells were treated with delphinidin (10 μg/ml) for 3 h and then incubated without or with VEGF (10 ng/ml) for 30 min for VEGFR2 phosphorylation or 24 h for VEGFR2 expression. Then, the cells were […], washed twice with PBS and trypsinized. The cells were lysed with RIPA buffer freshly in presence of protease inhibitor. Cells were allowed to lyse for 45 min on ice and centrifuged at 15000 g for 15 min at 4°C. The supernatant was […], and protein concentrations in the supernatant were determined by protein assay.
(§4) The proteins (30 μg) were separated on 10% sodium dodecyl sulfate-polyacrylamide gel electrophoresis (SDS-PAGE) and transferred on the nitrocellulose membranes. The membranes were incubated with anti-VEGFR2 or anti-pVEGFR2. The anti-β-actin (Sigma-Aldrich) was used to visualize protein gel loading. The membranes were then incubated with appropriate HRP-conjugated secondary antibody. The protein-antibody complexes were detected by chemiluminescence using the Western Blotting Luminol reagent kit (Santa Cruz Biotechnology®).

[6] = tested on: human NSCLC cells; set-up: method as in PMID 24124611; details: athymic nude mice subcutaneously implanted with human NSCLC cells; vs control mice; cited from earlier work
[7] = tested on: VEGFR2; assay: VEGFR2 expression and phosphorylation in HUVECs (Western blot); assay type: cell-based, human
Procedure: as §3, §4

[8] = tested on: p38 MAP kinase; assay: p38 MAP kinase activation in HUVECs (Western blot); assay type: cell-based, human; details: delphinidin 10 μg/ml; 30 min
Procedure: as §2

[9] = tested on: PDE1; assay: Purified PDE radio-enzymatic assay, PDE1; assay type: biochemical, bovine; details: substrate 1 μM cGMP, preliminarily reported in ref 26
Procedure: as §1

[10] = tested on: B16-F10 melanoma cells; assay: Melanoma cell proliferation (CyQUANT); assay type: cell-based, mouse; details: 24, 48 and 72 h
Procedure: B16-F10 (5,000 cells per well) were seeded on 96-multiwell plates in completed medium and allowed to attach overnight. […] Proliferation was determined at 24 h, 48 h and 72 h by a fluorimetric assay using the CyQUANT Cell Proliferation Assay Kit (Molecular Probes, Eugene, OR). After growth medium removal, dye-binding solution was added into each microplate well and cells were incubated at 37°C for 45 minutes. The fluorescence levels were read on a fluorescent microplate reader (Synergy HT, Biotek, Winooski, VT) with filters for 485 nm excitation and 530 nm emission.

[11] = Mouse weight during xenograft experiment; assay type: in vivo; details: 10 mg/kg i.p. once a week for 3 weeks; over 30 days; vs non-treated mice
Procedure: (§5) Two groups of 7 male C57BL/6N mice were used at 6 weeks old for tumor induction. The experimental protocol is illustrated on in Fig 1A. Before any treatments, mouse weights were registered on day 1 (D1). On the following day (D2), all mice were subcutaneously injected on the ventral side near each hindleg with B16-F10 melanoma cells (25x10^4 cells in 100 μl of 0.9% NaCl). The seventh day after tumor cell inoculation (D9), mice were treated by i.p. injection (100 μl/10 g mice) with either drug solvent (1% ethanol) or 10 mg delphinidin/kg. Delphinidin as well as solvent injections were repeated twice at 7-day intervals (D16 and D23). Then, seven days later (D30) after pentobarbital anesthesia, mice were sacrificed by cervical dislocation and tumors were dissected and weighted.

[12] = tested on: B16-F10 melanoma cell xenograft; assay: Tumor growth induced by B16-F10 melanoma cell xenograft in mice; assay type: in vivo, mouse; details: 10 mg/kg i.p. once a week for 3 weeks; 30th day; vs vehicle-treated mice
Procedure: as §5

[13] = tested on: CREB; assay: CREB phosphorylation in HUVECs (Western blot); assay type: cell-based, human; details: 30 min
Procedure: as §2

[14] = tested on: PDE4; assay: Purified PDE radio-enzymatic assay, PDE4; assay type: biochemical, bovine; details: substrate 1 μM cAMP; preliminarily reported in ref 26
Procedure: as §1

In the case of `COc1cc2nccc(Oc3ccc(NC(=O)Nc4ccc(F)cc4F)c(F)c3)c2cc1OC` [Ki8751, reference compound], the “ability of VEGF to increase endothelial cell proliferation” value ([1]; Ki8751 10 nM + VEGF, 24 and 48 h) is reported as “completely abolished”.

For `O=c1cc(N2CCOCC2)oc2c(-c3ccccc3)cccc12` [LY-294002, 2-(4-Morpholinyl)-8-phenyl-4H-1-benzopyran-4-one, reference compound], the “effect on the inhibitory effect of delphinidin on basal proliferation” value ([1]; LY-294002 10 μM + delphinidin 10 μg/ml) was “completely blunted” and the “increase of basal proliferation” value ([1]; LY-294002 10 μM, 72 h) was “not at 72 h”.

In the case of `N#CC(=C(N)Sc1ccccc1N)C(C#N)=C(N)Sc1ccccc1N` [U-0126, 1,4-diamino-2,3-dicyano-1,4-bis(2-aminophenylthio)-butadiene, reference compound], the “proliferation rate (% of control)” value ([1]; U-0126 10 μM + VEGF 10 ng/ml, 72 h, n.s. vs control) is reported as 131% and the “effect on the inhibitory effect of delphinidin on basal proliferation” value ([1]; U-0126 10 μM + delphinidin 10 μg/ml) is reported as “reversed to some extent closer to basal level”.

With `Oc1cc(O)c2cc(O)c(-c3cc(O)c(O)c(O)c3)[o+]c2c1` [delphinidin, Delphinidin] the IC50 ([2]; +5μM cGMP) was 19.8 µM and 18 µM, the IC50 ([2]; no regulator) was 115 µM and 103 µM and the “phosphorylation of ATF1” value ([3]; after stimulation by VEGF 10 ng/ml) was “abolished”. For the same molecule, the “phosphorylation of ATF1” value ([3]; control conditions) was “abolished”, the IC50 [4] was 49.5 µM and 44 µM and the “VEGF-dependent VEGFR2 phosphorylation” value ([5]; delphinidin 10 μg/ml 3 h, then VEGF 30 min) was “inhibited”. The “change of VEGF-induced proliferation” value ([1]; 24 h) was -56%, the “change of VEGF-induced proliferation” value ([1]; 48 h) was -85% and the “change of VEGF-induced proliferation” value ([1]; 72 h) was -130%. The “change of rate of basal proliferation” value ([1]; 24 h) was -52%, the “change of rate of basal proliferation” value ([1]; 48 h) was -66% and the “change of rate of basal proliferation” value ([1]; 72 h) was -70%. The tumor growth [6] was “significant inhibition”, the “ability of VEGF in increasing VEGFR2 phosphorylation” value ([7]; delphinidin 10 μg/ml 3 h, then VEGF 10 ng/ml 30 min) was “completely prevented” and the “ability of VEGF in increasing VEGFR2 expression” value ([7]; delphinidin 10 μg/ml 3 h, then VEGF 10 ng/ml 24 h) was “completely prevented”. For the same molecule, the VEGFR2 expression ([7]; delphinidin 10 μg/ml alone) was “no effect”, the VEGFR2 phosphorylation ([7]; delphinidin 10 μg/ml alone) was “no effect” and the “basal p38 MAP kinase activation” value [8] was “did not affect”. For the same molecule, the IC50 ([9]; +CaM/Ca) was 15 ± 3 µM, the “IC50 PDE1” value ([9]; +CaM/Ca) was 5 ± 1 µg/mL and the IC50 ([9]; no regulator) was 33 ± 6 µM. For the same molecule, the “IC50 PDE1” value ([9]; no regulator) was 11 ± 2 µg/mL, the B16-F10 proliferation ([10]; delphinidin 10 μg/ml) was “did not inhibit” and the “mouse weight as a percent of the starting weight” value [11] was “unchanged”. For the same molecule, the “decrease of tumor weight” value [12] was 83%, the “increase of CREB phosphorylation induced by VEGF” value ([13]; delphinidin 10 μg/ml + VEGF 10 ng/ml) was “completely prevented” and the CREB phosphorylation ([13]; delphinidin 10 μg/ml alone) was “no significant effect”. For the same molecule, the IC50 [14] was 109 ± 12 µM and the “IC50 PDE4” value [14] was 37 ± 4 µg/mL.

In the case of VEGF, the VEGFR2 expression ([5]; VEGF 10 ng/ml) is reported as “did not modify”, the VEGFR2 phosphorylation ([5]; VEGF 10 ng/ml 30 min) is reported as “increased” and the VEGFR2 phosphorylation ([7]; VEGF 10 ng/ml 30 min) is reported as “increased”. The VEGFR2 expression ([7]; VEGF 10 ng/ml 24 h) was “increased”, the “B16-F10 melanoma cell proliferation” value ([10]; VEGF 10 ng/ml) was “not able increase” and the “increase of CREB phosphorylation” value ([13]; VEGF 10 ng/ml) was “+484%”.
